Earlier results, collected in patent US4083974A, “Topical steroidal anti-inflammatory preparations containing polyoxypropylene 15 stearyl ether” (The Upjohn Company, priority 1977, dated 1978).

Experiments:
[1] = known property of the prior-art solvent
[2] = known property from the art
bacterial = details: prior art; composition contains approximately 15% ethyl alcohol

| SMILES | irritation to the skin [1] | lubricant properties [2] | anti-bacterial activity (bacterial) |
| --- | --- | --- | --- |
| CC(O)CO (stereo not drawn) [Propylene glycol, propylene glycol] | irritating to the skin | non-lubricant | – |
| CCO [ethyl alcohol] | – | – | known anti-bacterial agent |
